Experiments:
wild type human CFTR = target: T1, wild type human CFTR (Homo sapiens, UniProt P13569); test: Yellow Fluorescent Protein (YFP) halide assay in wild type CFTR (HEK293 cells); format: cell-based; conditions: HEK293 cells transfected with wild type human CFTR; 24 h incubation; 10 μM forskolin; read-out: EC50 of inhibition of WT CFTR
T1 construct: expressed in transfected cells; host or cells: HEK293
Method: To evaluate the ability of a test compound to inhibit wild type CFTR, a YFP halide assay using HEK293 cells transfected with wild type human CFTR was developed. (Galietta, Jayaraman, and Verkman 2001) Cells were incubated during 24 h with a dose range of test compound and the resulting wild type CFTR activity was plotted to obtain the EC50.
Test compounds were also added together with forskolin to wild type CFTR expressing cells in order to fully active the available CFTR at the plasma membrane and determine accurately the inhibition of the channel activity.
HEK293 cells were transfected with 10 to 80 ng of wild type CFTR and 20 ng of plasmid encoding YFP (H148Q/I152L/F47L) using jetPEI (Polyplus transfection). Directly after transfection, cells were seeded in black 96-well plates coated with Poly-D-lysine at a density of 70,000 cells per well. The next day, cells were treated with corrector(s) for 24 h. After this incubation period, cells were washed twice with DPBS with Ca^2+ and Mg^2+. Subsequently, cells were treated with 10 μM forskolin and the desired concentration of potentiator in a volume of 40 μl and incubated at room temperature for 10 min, a time point optimized in previous experiments resulting in a good window (positive control/negative control >2) and signal to background ratio. YFP fluorescence was measured using an EnVision plate reader (PerkinElmer). […]

wt CFTR (CFTR channel) = target: T2, wt CFTR (CFTR channel) (Homo sapiens, UniProt P13569); test: TECC assay on normal primary human bronchial epithelial (HBE) cells; format: cell-based; conditions: 0.3 μM forskolin
T2 construct: evaluate compounds on normal primary bronchial epithelial cells (HBE cells); endogenous in cells; host or cells: normal primary human bronchial epithelial (HBE) cells from donor lungs
Method: The TECC assay is used to evaluate compounds on normal primary bronchial epithelial cells (HBE cells), which are closer to physiological conditions
Bronchial epithelial cells isolated from transplanted lungs from normal (wt CFTR) were isolated from lungs obtained from donors undergoing a planned transplantation. These primary cells were cultured directly on type IV collagen-coated polycarbonate Transwell supports with a diameter of 6.5 mm and pore size of 0.4 μm (Costar, #3397) for 18 to 25 days in air liquid (ali) interface essentially as previously described for TECC. (Fulcher et al. 2005)
Trans-epithelial clamp circuit (TECC) recordings were performed using the TECC instrument developed and sold by EP Design (Bertem, Belgium). During the recording, the epithelial cells were bathed in a NaCl-Ringer solution (120 mM NaCl, 20 mM HEPES, 1.2 mM CaCl2, 1.2 mM MgCl2, 0.8 mM KH2PO4, 0.8 mM K2HPO4, 5 mM glucose, pH 7.4) on both the basolateral (640 μl) and the apical side (160 μl) and kept at 37° C. Apical amiloride was used to inhibit the endogenous ENaC currents (100 μM) while forskolin (0.3 μM) was applied on both the apical and basolateral sides to stimulate CFTR. All triggers and compounds used during the experiment were first dissolved in DMSO to a 1000× concentrated solution, just prior to treatment a 10× stock was prepared in the NaCl-Ringer solution which was used for addition of the correct concentration of trigger and or compound during the experiment. Cells were treated with test compounds for 24 hours before recording and this treatment was repeated in the TECC buffer prior to the electrophysiological recording. Measurements were done during a 20-min timeframe with recordings every 2 min. The transepithelial potential (PD) and transepithelial resistance (Rt) were measured in an open circuit and transformed to Ieq using Ohm's law. The maximal increase in Ieq (Δ Ieq) was used as a measure for the increased CFTR activity.

[1] = test system: PKD1^flox/flox / ubiquitous CreER^T2 mice; test: In vivo ADPKD mice model in combination with tolvaptan (meta-analysis of two experiments)
Excerpt: The ADPKD mice model is based on PKD1^flox/flox (with lox sites flanking exons 2-4)/ubiquitous CreER^T2 mice in which the PKD1 gene is ubiquitously knock-out by the activation of the Cre recombinase by treatment of the mice with Tamoxifen at day 12 after birth (in nursing female). Homozygotous knock-out of the PKD1 gene leads to the rapid formation of kidney cysts mimicking to a certain extend the development of ADPKD disease in human.
Before experimentations, mouse colonies of PKD1^flox/flox (with lox sites flanking exons 2-4)/ubiquitous CreER^T2 were maintained at Charles River Laboratories (France). To induce Cre recombinase activity, tamoxifen (60 mg/kg in sunflower oil) was delivered in nursing females by intraperitoneal injection at postnatal day 12. Subsequently, tamoxifen-containing milk was administered to pups. Treatments started at 4 weeks of age for 11 weeks. Tolvaptan was incorporated in diet (0.1%) and given alone or in combination with Cpd 2, administered at 250 mg/kg, q. d., p.o. At initiation of treatment and on a regular basis during the study, serum was collected to determine levels of blood urea nitrogen (BUN) on a Spotchem bioanalyzer. At necropsy, kidneys were collected and weighed to determine kidney weight/body weight ratio.
Two independent experiments were conducted.
A two-way ANOVA with Dunnett post-hoc multiple comparisons of all experimental groups versus the diseased group has been applied to the log Fold Change (log FC) of BUN ([…]) at sacrifice (Week 15) versus BUN at Week 4 as function of Group and Study.
The mean fold change at week 15 (sacrifice) vs week 4 (treatment initiation) is calculated, assuming a 100% change for the diseased group (untreated).

T2 sequence (P13569 whole entry): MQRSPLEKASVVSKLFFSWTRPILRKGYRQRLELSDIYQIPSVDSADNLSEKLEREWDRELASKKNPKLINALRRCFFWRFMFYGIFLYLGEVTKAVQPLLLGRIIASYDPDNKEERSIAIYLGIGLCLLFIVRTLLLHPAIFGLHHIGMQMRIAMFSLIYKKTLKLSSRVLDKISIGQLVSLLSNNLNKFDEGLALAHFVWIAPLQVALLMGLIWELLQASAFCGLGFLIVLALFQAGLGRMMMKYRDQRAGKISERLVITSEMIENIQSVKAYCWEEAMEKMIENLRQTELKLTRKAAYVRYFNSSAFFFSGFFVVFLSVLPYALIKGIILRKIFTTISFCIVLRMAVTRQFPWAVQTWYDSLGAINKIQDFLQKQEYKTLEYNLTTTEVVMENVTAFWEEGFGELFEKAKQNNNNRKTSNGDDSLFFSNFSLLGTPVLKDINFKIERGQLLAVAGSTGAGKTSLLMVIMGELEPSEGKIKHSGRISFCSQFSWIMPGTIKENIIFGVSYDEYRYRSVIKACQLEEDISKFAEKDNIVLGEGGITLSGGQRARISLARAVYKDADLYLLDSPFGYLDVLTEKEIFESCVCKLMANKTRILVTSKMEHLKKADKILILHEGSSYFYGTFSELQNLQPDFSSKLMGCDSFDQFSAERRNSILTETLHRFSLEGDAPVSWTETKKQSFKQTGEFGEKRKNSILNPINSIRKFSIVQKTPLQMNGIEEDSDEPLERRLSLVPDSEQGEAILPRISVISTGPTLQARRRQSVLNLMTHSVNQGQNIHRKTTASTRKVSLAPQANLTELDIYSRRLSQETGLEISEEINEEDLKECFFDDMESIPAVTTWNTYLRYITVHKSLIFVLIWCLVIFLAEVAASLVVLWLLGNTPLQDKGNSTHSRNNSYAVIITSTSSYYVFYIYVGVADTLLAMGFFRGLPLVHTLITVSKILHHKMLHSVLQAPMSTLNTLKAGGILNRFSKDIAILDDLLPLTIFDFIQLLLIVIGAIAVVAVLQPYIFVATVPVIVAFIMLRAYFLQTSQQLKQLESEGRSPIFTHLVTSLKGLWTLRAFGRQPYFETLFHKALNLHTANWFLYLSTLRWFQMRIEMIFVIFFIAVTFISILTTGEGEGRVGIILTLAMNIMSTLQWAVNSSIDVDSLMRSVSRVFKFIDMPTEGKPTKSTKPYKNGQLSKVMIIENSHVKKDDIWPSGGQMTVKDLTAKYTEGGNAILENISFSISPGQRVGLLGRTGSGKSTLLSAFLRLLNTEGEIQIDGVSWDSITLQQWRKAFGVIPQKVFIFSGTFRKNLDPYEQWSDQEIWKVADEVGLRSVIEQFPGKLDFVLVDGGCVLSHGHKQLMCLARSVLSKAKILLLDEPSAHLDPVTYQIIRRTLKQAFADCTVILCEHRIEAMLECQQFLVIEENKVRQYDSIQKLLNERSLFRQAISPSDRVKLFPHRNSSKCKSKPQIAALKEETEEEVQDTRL
T1 sequence (P13569 whole entry): as above

EC50 (wild type human CFTR) [nM]	pIC50 (wt CFTR (CFTR channel))	IC50 (wt CFTR (CFTR channel); read-out: IC50 value (resulting from pIC50) (converted)) [nM]	SMILES	BUN Mean fold changes on week 15 vs week 4 ([1]; Cpd 2 250 mg/kg q.d. p.o., Tolvaptan 0.1% in diet, treatment from 4 weeks of age for 11 weeks)	BUN fold change vs the diseased group (in words) ([1]; administered from week 4 to week 15)	BUN % of Mean Diseased fold change ([1]; week 15 vs week 4, diseased group = 100, Cpd 2 250 mg/kg q.d. p.o., Tolvaptan 0.1% in diet) [%]
102	7.50	32	COC1CCN(C2CCN(c3cc(C(=O)NS(=O)(=O)N(C)C)nc4c3c(C3CCC3)nn4-c3ccc(F)cc3)CC2)CC1 [Cpd 2]	–	–	–
–	–	–	Cc1ccccc1C(=O)Nc1ccc(C(=O)N2CCCC(O)c3cc(Cl)ccc32)c(C)c1 (stereo not drawn) [Tolvaptan, tolvaptan]	1.889	did not result in a significant fold change	80.7

Source: patent publication US12383544B2, “Methods for the treatment of polycystic kidney disease” (Galapagos NV, priority 2019, dated 2025)
